In one assay the target is T1, human P2X4 (Homo sapiens, UniProt Q99571).
T1 sequence (Q99571 1-388): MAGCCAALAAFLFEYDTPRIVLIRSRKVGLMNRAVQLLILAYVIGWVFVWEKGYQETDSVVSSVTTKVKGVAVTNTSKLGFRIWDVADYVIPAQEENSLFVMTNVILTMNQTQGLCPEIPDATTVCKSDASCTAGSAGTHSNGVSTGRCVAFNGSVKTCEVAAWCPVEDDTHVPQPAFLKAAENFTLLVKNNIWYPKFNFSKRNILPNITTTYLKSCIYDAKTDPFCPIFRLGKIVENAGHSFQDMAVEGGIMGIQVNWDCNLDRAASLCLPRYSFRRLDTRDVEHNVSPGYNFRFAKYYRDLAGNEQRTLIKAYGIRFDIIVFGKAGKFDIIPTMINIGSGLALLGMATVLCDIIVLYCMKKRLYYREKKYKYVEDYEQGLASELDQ
Briefly: Human P2X4 HEK Cell Electrophysiology Assay A (PatchLiner). It is filed as cell-based. Further details: expressed in transfected cells; host or cells: HEK293. The conditions noted are these: ATP 5 μM, -80 mV; read-out: Human P2X4 HEK Cells (PatchLiner Electrophysiology) avg IC50. Here is the method: HEK293 cells stably expressing human P2X4 were seeded in T75 cell culturing flasks at a density of 7*106 cells and incubated overnight. P2X4 function was assayed using the automated patch clamp platform PatchLiner (Nanion) in single hole mode. Composition of extracellular buffer was (in mM) NaCl 145, KCl 4, HEPES 10, CaCl2) 1, MgCl2 0.5, D-glucose monohydrate 10, pH=7.4. The intracellular buffer contained (in mM): CsF 135, EGTA 1, HEPES 10, NaCl 10, pH 7.2. On the day of the assay, cells were harvested using Accumax (Sigma) and were resuspended in extracellular buffer. The ligand agonist, adenosine 5′-trisphosphate (ATP, 5 μM) was added in a volume of 5 μL, directly washed off by extracellular buffer (40 μL). The cells were voltage clamped at −80 mV and ligand was applied every 5 min. for 20 min. Over this period the agonist response was stable and compounds were measured in single concentration per well mode. Compounds diluted in extracellular buffer (final assay DMSO concentration 0.3%) were added in a volume of 40 μL and allowed to incubate for 8 min at room temperature. The data was analyzed based on the decrease in peak current amplitude and normalized to the agonist control. Mean values were plotted in Excel XLFit to determine IC50 values, percentage of maximal inhibition and the Hill coefficients.

For the next assay, the system named is Sprague Dawley (SD) rats. Briefly: tMCAO-Induced Ischemic Stroke Model in Rats. The format is in vivo, rat. The conditions noted are these: per os twice a day for seven days, from day 8 on, p<5% vs vehicle treated tMCAO-group. Here is the method:
Transient middle cerebral artery occlusion (tMCAO) was performed in approximately 3 months old male Sprague Dawley (SD) rats according to the method described by Schmid-Elsaesser et al. [Stroke. 1998; 29(10):2162-2170]. In particular, the right common carotid artery (CCA) was exposed through a midline neck incision and carefully dissected free from surrounding nerves and fascia—from its bifurcation to the base of the skull. […] The ECA was dissected further distally and coagulated along with the terminal lingual and maxillary artery branches, just before their bifurcation. The internal carotid artery (ICA) was isolated and carefully separated from the adjacent vagus nerve, and the pterygopalatine artery was ligated close to its origin with a 5-0 nylon suture. Thereafter, a 4-0 silk suture was tied loosely around the mobilized ECA stump, and a 4 cm length of Doccol 4-0 monofilament suture (coated with silicone) was inserted through the proximal ECA into the ICA and thence into the circle of Willis, effectively occluded the MCA. The surgical wound was closed and the animals were returned to their cages for recovery from anesthesia. Two hours after occlusion, rats were re-anesthetized and the monofilament was withdrawn to allow reperfusion. The wound was closed again and rats were returned to their cages.
Four groups of rats with 12-15 rats per group were included into the study. […]

In the case of `NS(=O)(=O)c1cc(NC(=O)Cc2ccccc2Cl)ccc1-n1cc(C(F)(F)F)cn1` [Example 19, 2-(2-Chlorophenyl)-N-{3-sulfamoyl-4-[4-(trifluoromethyl)-1H-pyrazol-1-yl]phenyl}acetamide], on human P2X4, the half-maximal inhibitory concentration (IC50) worked out at 111 nM.

For `NS(=O)(=O)c1cc(NC(=O)Cc2ccccc2Cl)cnc1-n1cc(C(F)(F)F)cn1` [Example 380, 2-(2-Chlorophenyl)-N-{5-sulfamoyl-6-[4-(trifluoromethyl)-1H-pyrazol-1-yl]pyridin-3-yl}acetamide], at human P2X4, the IC50 is 320 nM.

In the case of `NS(=O)(=O)c1cc(NC(=O)Cc2ccccc2Cl)ccc1-c1cnn(C(F)F)c1` [Example 326, 2-(2-Chlorophenyl)-N-{4-[1-(difluoromethyl)-1H-pyrazol-4-yl]-3-sulfamoylphenyl}acetamide], the IC50 on human P2X4 came to 57 nM.

Consider `N#Cc1cnn(-c2ccc(NC(=O)Cc3ccccc3Cl)cc2S(N)(=O)=O)c1` [Example 39, 2-(2-Chlorophenyl)-N-[4-(4-cyano-1H-pyrazol-1-yl)-3-sulfamoylphenyl]acetamide], for which the “modified neurologic severity score (mNSS)” value in the assay with Sprague Dawley (SD) rats is on record as “significant smaller mNSS than the vehicle treated tMCAO-group”. At human P2X4, the half-maximal inhibitory concentration (IC50) is 138 nM.

The values are drawn from patent US20210179577A1, “AROMATIC SULFONAMIDE DERIVATIVES FOR THE TREATMENT OF ISCHEMIC STROKE” (Bayer Aktiengesellschaft, priority 2017, published 2021).
